The supplement of paper PMC10307832

Legend:
Assay in all cases: relative viability (nuclei count vs DMSO), 5 days (fraction); higher = more cells survive
[1] = compound: Cc1ccc2nc(NCCN)c3ncc(C)n3c2c1 + COc1cccc2cc(-c3nc([C@H]4CC[C@H](C(=O)O)CC4)n4ncnc(N)c34)[nH]c12 [OSI-027] (partner 0.5 µM)
Procedure, shortened: (§1)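 Lung cancer cell lines were pin-tool dosed in 1536-well plates on the day after seeding, with either a lone drug or a fixed anchor-drug dose plus five library-drug doses (not always all listed) in √10 steps. Nuclei were counted on 4× images after 5 days. Relative viability is the ratio of treated-well to vehicle-well nuclei counts, with each value a median of duplicate plates.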

Salubrinal + Luminespib = compound: O=C(/C=C/c1ccccc1)NC(NC(=S)Nc1cccc2cccnc12)C(Cl)(Cl)Cl [Salubrinal] + CCNC(=O)c1noc(-c2cc(C(C)C)c(O)cc2O)c1-c1ccc(CN2CCOCC2)cc1 [Luminespib] (partner 0.01 µM)
Procedure, shortened: as §1

Salubrinal + Lapatinib = compound: O=C(/C=C/c1ccccc1)NC(NC(=S)Nc1cccc2cccnc12)C(Cl)(Cl)Cl [Salubrinal] + CS(=O)(=O)CCNCc1ccc(-c2ccc3ncnc(Nc4ccc(OCc5cccc(F)c5)c(Cl)c4)c3c2)o1 [Lapatinib] (partner 2 µM)
Procedure, shortened: as §1

Salubrinal + AZD7762 = compound: O=C(/C=C/c1ccccc1)NC(NC(=S)Nc1cccc2cccnc12)C(Cl)(Cl)Cl [Salubrinal] + NC(=O)Nc1cc(-c2cccc(F)c2)sc1C(=O)N[C@H]1CCCNC1 [AZD7762] (partner 0.2 µM)
Procedure, shortened: as §1

Row | Cell Line | relative viability ([1]; first compound 0.04 µM) | relative viability ([1]; first compound 0.1265 µM) | relative viability ([1]; first compound 0.4 µM) | relative viability ([1]; first compound 1.265 µM) | relative viability ([1]; first compound 4 µM) | relative viability (Salubrinal + Luminespib; first compound 0.08 µM) | relative viability (Salubrinal + Luminespib; first compound 0.253 µM) | relative viability (Salubrinal + Luminespib; first compound 0.8 µM) | relative viability (Salubrinal + Luminespib; first compound 2.53 µM) | relative viability (Salubrinal + Luminespib; first compound 8 µM) | relative viability (Salubrinal + Lapatinib; first compound 0.08 µM) | relative viability (Salubrinal + Lapatinib; first compound 0.253 µM) | relative viability (Salubrinal + Lapatinib; first compound 0.8 µM) | relative viability (Salubrinal + Lapatinib; first compound 2.53 µM) | relative viability (Salubrinal + Lapatinib; first compound 8 µM) | relative viability (Salubrinal + AZD7762; first compound 0.08 µM) | relative viability (Salubrinal + AZD7762; first compound 0.253 µM) | relative viability (Salubrinal + AZD7762; first compound 0.8 µM) | relative viability (Salubrinal + AZD7762; first compound 2.53 µM) | relative viability (Salubrinal + AZD7762; first compound 8 µM)
1 | RERF-LC-KJ | 0.596 | 0.639 | 0.566 | 0.604 | 0.52 | 1.31 | 1.37 | 1.41 | 1.13 | 1.08 | 0.871 | 0.75 | 0.837 | 0.828 | 0.822 | 1.05 | 0.917 | 1.1 | 0.999 | 0.885
2 | NCI-H1651 | 0.787 | 0.708 | 0.681 | 0.613 | 0.604 | 0.99 | 0.897 | 0.962 | 0.743 | 0.827 | 1.01 | 0.77 | 1.07 | – | 0.816 | 0.464 | 0.423 | 0.546 | 0.484 | 0.388
3 | NCI-H1793 | 0.305 | 0.314 | 0.236 | 0.317 | 0.29 | 0.231 | 0.168 | 0.206 | 0.162 | 0.244 | 0.947 | 0.654 | 0.657 | 0.818 | 0.752 | 0.676 | 0.407 | 0.505 | 0.366 | 0.276
4 | LC-2-ad | 0.866 | 0.825 | 0.789 | 0.889 | 0.784 | 1.06 | 1.13 | 1.05 | 0.979 | 0.98 | 1.07 | 0.608 | 1.1 | 0.971 | 0.868 | 0.946 | 0.832 | 0.89 | 0.823 | 0.647
5 | NCI-H1437 | 1 | 0.871 | 0.886 | 0.879 | 0.884 | 1.21 | 0.999 | 1.19 | 1.08 | 1.12 | 0.925 | 0.763 | 0.94 | 0.878 | 0.653 | 1.19 | 1.1 | 1.16 | 1.11 | 1.04
6 | H3255 | 0.663 | 0.588 | 0.592 | 0.522 | 0.541 | 0.939 | 0.948 | 1.14 | 0.847 | 0.786 | 0.241 | 0.253 | 0.191 | 0.233 | 0.226 | 0.967 | 0.786 | 1.03 | 0.87 | 0.859
7 | NCI-H1792 | 0.683 | 0.756 | 0.707 | 0.704 | 0.638 | 0.574 | – | 0.472 | 0.624 | 0.587 | 1.11 | – | 1.64 | 0.914 | 0.873 | 0.514 | – | 0.982 | 0.571 | 0.354
8 | NCI-H2170 | 0.737 | 0.737 | 0.657 | 0.715 | 0.701 | 0.854 | 0.686 | 0.642 | 0.643 | 0.714 | 0.275 | 0.289 | 0.248 | 0.271 | 0.263 | 0.953 | 0.942 | 0.995 | 0.792 | 0.878
9 | NCI-H2087 | 0.648 | 0.595 | 0.478 | 0.703 | 0.501 | 0.151 | 0.164 | 0.16 | 0.187 | 0.183 | 1.04 | 1.06 | 1.16 | 0.93 | 1.1 | 1.44 | 0.751 | 1.44 | 1.31 | 1.29
10 | NCI-H727 | 0.852 | 0.707 | 0.754 | 0.645 | 0.585 | 0.407 | 0.337 | 0.337 | 0.312 | 0.274 | 1.01 | 0.848 | 0.899 | 0.812 | 0.903 | 0.574 | 0.648 | 0.649 | 0.583 | 0.584
11 | LU99A | 0.34 | 0.268 | 0.283 | 0.273 | 0.298 | 0.234 | 0.264 | 0.293 | 0.243 | 0.248 | 1.17 | 1.15 | 1.13 | 0.945 | 0.594 | 0.459 | 0.319 | 0.401 | 0.311 | 0.236
12 | NCI-H647 | 0.566 | 0.607 | 0.637 | 0.634 | 0.719 | 0.208 | 0.243 | 0.27 | 0.356 | 0.154 | 1.31 | 0.687 | 1.31 | 1.2 | 0.829 | 0.616 | 0.435 | 0.487 | 0.505 | 0.397
13 | NCI-H1755 | 0.77 | 0.738 | 0.718 | 0.72 | 0.655 | 0.414 | 0.637 | 0.707 | 0.293 | 0.378 | 1.24 | 0.794 | 1.11 | 1.04 | 0.966 | 0.668 | 0.406 | 0.517 | 0.41 | 0.584
14 | NCI-H3122 | 1.06 | 0.953 | 0.858 | 0.828 | 0.678 | 0.117 | 0.112 | 0.0978 | 0.118 | 0.1 | 1.12 | 1.02 | 1.04 | 1.1 | 0.959 | 1.16 | 0.979 | 1.07 | 1.1 | 1.05
15 | NCI-H358 | 0.807 | 0.708 | 0.694 | 0.797 | 0.858 | 0.277 | – | 0.553 | 0.478 | 0.38 | 0.531 | 0.514 | 0.365 | 0.494 | 0.47 | 0.583 | 0.461 | 0.538 | 0.561 | 0.459
16 | PC-14 | 0.882 | 0.819 | 0.979 | 0.759 | 0.388 | 0.23 | 0.118 | 0.134 | 0.151 | 0.126 | 0.412 | 0.347 | 0.331 | 0.29 | 0.382 | 0.485 | 0.422 | 0.418 | 0.365 | 0.367
